One assay addresses T1, RSK1 (Homo sapiens, UniProt Q15418).
T1 construct: evaluate the effects of the compounds of the present disclosure on the expression of target proteins in cells; endogenous in cells; host or cells: hPBMC
Description: Western blot degradation of RSK1 (hPBMC). The note with it: Table D8. Format: cell-based. In a few lines: (§1)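 After compound exposure, cells were harvested and lysates run on SDS-PAGE, transferred to nitrocellulose and probed with antibodies. Remaining target (%) was computed from band grayscale relative to an internal control protein and normalised; degradation (%) was 100% minus that.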
For orientation: A western blot detects proteins with antibodies after separation by electrophoresis.

The target in another assay is T2, RSK2 (Homo sapiens, UniProt P51812).
T2 construct: evaluate the effects of the compounds of the present disclosure on the expression of target proteins in cells; endogenous in cells; host or cells: hPBMC
T2 sequence (P51812 whole entry): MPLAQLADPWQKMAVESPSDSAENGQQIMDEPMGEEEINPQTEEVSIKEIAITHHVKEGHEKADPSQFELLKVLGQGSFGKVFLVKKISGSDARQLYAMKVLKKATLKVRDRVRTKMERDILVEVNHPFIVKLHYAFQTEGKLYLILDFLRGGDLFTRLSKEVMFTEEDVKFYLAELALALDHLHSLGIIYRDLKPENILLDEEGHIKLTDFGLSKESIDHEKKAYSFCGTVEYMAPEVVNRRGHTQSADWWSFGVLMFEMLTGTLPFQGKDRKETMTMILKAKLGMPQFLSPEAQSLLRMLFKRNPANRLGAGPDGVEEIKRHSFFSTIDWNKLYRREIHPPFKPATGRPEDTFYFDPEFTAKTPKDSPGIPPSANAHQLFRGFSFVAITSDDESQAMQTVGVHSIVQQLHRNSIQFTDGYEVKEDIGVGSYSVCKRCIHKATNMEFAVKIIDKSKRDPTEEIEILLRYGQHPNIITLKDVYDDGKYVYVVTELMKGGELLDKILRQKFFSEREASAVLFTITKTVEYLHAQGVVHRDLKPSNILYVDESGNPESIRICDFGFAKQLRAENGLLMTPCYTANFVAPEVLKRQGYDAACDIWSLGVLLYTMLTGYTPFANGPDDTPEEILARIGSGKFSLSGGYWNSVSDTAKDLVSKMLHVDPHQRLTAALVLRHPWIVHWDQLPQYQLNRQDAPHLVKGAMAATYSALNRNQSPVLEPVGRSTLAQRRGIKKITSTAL
Description: Western blot degradation of RSK2 (hPBMC). Format: cell-based. The following applies: Table D8. In a few lines: as §1

The target in assay [1] is T3, human Cereblon WT GST-tagged protein (Homo sapiens, UniProt Q96SW2).
T3 construct: purchased CISBIO 64BDCRBNPEH
T3 sequence (Q96SW2 whole entry): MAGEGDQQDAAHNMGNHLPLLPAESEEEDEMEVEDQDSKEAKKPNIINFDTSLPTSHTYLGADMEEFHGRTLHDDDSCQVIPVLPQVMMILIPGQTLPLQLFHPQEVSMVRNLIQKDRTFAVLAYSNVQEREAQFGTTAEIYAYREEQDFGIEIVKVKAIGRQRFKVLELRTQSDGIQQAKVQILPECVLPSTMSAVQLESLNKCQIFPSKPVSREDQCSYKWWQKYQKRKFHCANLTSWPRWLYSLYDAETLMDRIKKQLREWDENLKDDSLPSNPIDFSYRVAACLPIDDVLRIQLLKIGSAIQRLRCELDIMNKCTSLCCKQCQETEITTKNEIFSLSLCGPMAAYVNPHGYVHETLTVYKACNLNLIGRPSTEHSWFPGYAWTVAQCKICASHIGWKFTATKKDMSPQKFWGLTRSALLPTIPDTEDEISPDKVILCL
Description: CRBN binding, HTRF (CEREBLON BINDING kit). The note with it: Table II-2, CRBN binding screening, HTRF; for inhibition at 0.5 µM: read-out: Inhibition rate (%) at 0.5µM; for inhibition at 2 µM: read-out: Inhibition rate (%) at 2 µM. In short, it runs like this:
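After 3 h at room temperature, emission at 665 and 620 nm was measured in a homogeneous time-resolved fluorescence format. Compounds competed with a Thalidomide-Re probe for GST-tagged wild-type human CRBN, which was labelled with a Eu anti-GST antibody.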

SMILES strings stand for the structures.

T1 sequence (Q15418 whole entry): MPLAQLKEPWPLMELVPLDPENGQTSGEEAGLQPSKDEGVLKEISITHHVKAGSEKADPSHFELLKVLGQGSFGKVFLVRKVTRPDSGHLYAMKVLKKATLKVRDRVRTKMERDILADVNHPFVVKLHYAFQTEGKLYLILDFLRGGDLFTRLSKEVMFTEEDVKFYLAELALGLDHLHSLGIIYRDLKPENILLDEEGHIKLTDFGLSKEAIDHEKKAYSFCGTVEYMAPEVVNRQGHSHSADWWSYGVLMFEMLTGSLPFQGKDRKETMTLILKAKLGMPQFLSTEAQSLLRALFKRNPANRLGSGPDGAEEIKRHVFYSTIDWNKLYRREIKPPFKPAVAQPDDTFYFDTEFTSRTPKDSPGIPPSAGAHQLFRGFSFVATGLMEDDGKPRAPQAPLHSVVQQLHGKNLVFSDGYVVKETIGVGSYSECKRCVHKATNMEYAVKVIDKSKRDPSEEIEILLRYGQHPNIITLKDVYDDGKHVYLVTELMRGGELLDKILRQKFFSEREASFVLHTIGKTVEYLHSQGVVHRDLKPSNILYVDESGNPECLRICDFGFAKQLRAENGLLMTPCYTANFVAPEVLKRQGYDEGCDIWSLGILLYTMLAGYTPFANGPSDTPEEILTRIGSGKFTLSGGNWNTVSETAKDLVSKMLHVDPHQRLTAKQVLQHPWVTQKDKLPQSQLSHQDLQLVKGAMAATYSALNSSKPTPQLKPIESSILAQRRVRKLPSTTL

With `C[C@@H]1CNC(=O)c2cc3ccc(C(=O)Nc4cnn(Cc5ccc(NCc6ccnc(N7CCC(=O)NC7=O)c6)cc5)c4)nc3n21` [GT-07795, (R)-N-(1-(4-(((2-(2,4-dioxotetrahydropyrimidin-1(2H)-yl)pyridin-4-yl)methyl)amino)benzyl)-1H-pyrazol-4-yl)-9-methyl-6-oxo-6,7,8,9-tetrahydropyrido[3',2':4,5]pyrrolo[1,2-a]pyrazine-2-carboxamide], at RSK1, the “Degradation of substrate protein RSK1 (substrate protein remaining %)” value is recorded as “A (A is defined as 0% ≤ substrate protein remaining % ≤ 80%)”. Moreover, the “Degradation of substrate protein RSK2 (substrate protein remaining %)” value on RSK2 is on record as “B (B is defined as substrate protein remaining % > 80%)”. Further, in assay [1], the inhibition at 0.5 µM is 30 to 40% and the inhibition at 2 µM fell in the range of 40 to 53%.

Regarding `C[C@@H]1CNC(=O)c2cc3ccc(C(=O)Nc4cnn(Cc5ccc(NCc6cncc(N7CCC(=O)NC7=O)c6)cc5)c4)nc3n21` [GT-07796, (R)-N-(1-(4-(((5-(2,4-dioxotetrahydropyrimidin-1(2H)-yl)pyridin-3-yl)methyl)amino)benzyl)-1H-pyrazol-4-yl)-9-methyl-6-oxo-6,7,8,9-tetrahydropyrido[3',2':4,5]pyrrolo[1,2-a]pyrazine-2-carboxamide], the “Degradation of substrate protein RSK1 (substrate protein remaining %)” value at RSK1 is recorded as “A (A is defined as 0% ≤ substrate protein remaining % ≤ 80%)”. Also, the “Degradation of substrate protein RSK2 (substrate protein remaining %)” value on RSK2 was “B (B is defined as substrate protein remaining % > 80%)”. Besides, in assay [1], the inhibition at 0.5 µM lay in the range of 80 to 100% and the inhibition at 2 µM was 80 to 100%.

Turning to `C[C@@H]1CNC(=O)c2cc3ccc(C(=O)Nc4cnn(Cc5ccc(N6CCC(N7CCN(Cc8ccc(C9CCC(=O)NC9=O)cc8)CC7)CC6)cc5)c4)nc3n21` (stereo partly drawn) [GT-07951, (9R)-N-(1-(4-(4-(4-(4-(2,6-dioxopiperidin-3-yl)benzyl)piperazin-1-yl)piperidin-1-yl)benzyl)-1H-pyrazol-4-yl)-9-methyl-6-oxo-6,7,8,9-tetrahydropyrido[3',2':4,5]py rrolo[1,2-a]pyrazine-2-carboxamide], the “Degradation of substrate protein RSK1 (substrate protein remaining %)” value on RSK1 is listed as “A (A is defined as 0% ≤ substrate protein remaining % ≤ 80%)”. For the same molecule, on RSK2, the “Degradation of substrate protein RSK2 (substrate protein remaining %)” value is recorded as “A (A is defined as 0% ≤ substrate protein remaining % ≤ 80%)”.

`C[C@@H]1CNC(=O)c2cc3ccc(C(=O)Nc4cnn(Cc5ccc(N6CCC(N7CCN(Cc8ccc(N9CCC(=O)NC9=O)cc8)CC7)CC6)cc5)c4)nc3n21` [GT-07952, (R)-N-(1-(4-(4-(4-(4-(2,4-dioxotetrahydropyrimidin-1(2H)-yl)benzyl)piperazin-1-yl)piperidin-1-yl)benzyl)-1H-pyrazol-4-yl)-9-methyl-6-oxo-6,7,8,9-tetrahydropyrido[3',2':4,5]pyrrolo[1,2-a]pyrazine-2-carboxamide]: the “Degradation of substrate protein RSK1 (substrate protein remaining %)” value at RSK1 is “A (A is defined as 0% ≤ substrate protein remaining % ≤ 80%)”. Also, on RSK2, the “Degradation of substrate protein RSK2 (substrate protein remaining %)” value was “A (A is defined as 0% ≤ substrate protein remaining % ≤ 80%)”.

Consider `C[C@@H]1CNC(=O)c2cc3ccc(C(=O)Nc4cnn(Cc5ccc(N6CCC(N7CCN(Cc8ccc(N9CCC(=O)NC9=O)nc8)CC7)CC6)cc5)c4)nc3n21` [GT-07955, (R)-N-(1-(4-(4-(4-((6-(2,4-dioxotetrahydropyrimidin-1(2H)-yl)pyridin-3-yl)methyl)piperazin-1-yl)piperidin-1-yl)benzyl)-1H-pyrazol-4-yl)-9-methyl-6-oxo-6,7,8,9-tetrahydropyrido[3',2':4,5]pyrrolo[1,2-a]pyrazine-2-carboxamide], for which the “Degradation of substrate protein RSK1 (substrate protein remaining %)” value on RSK1 is on record as “A (A is defined as 0% ≤ substrate protein remaining % ≤ 80%)”. The “Degradation of substrate protein RSK2 (substrate protein remaining %)” value at RSK2 is given as “A (A is defined as 0% ≤ substrate protein remaining % ≤ 80%)”.

`C[C@@H]1CNC(=O)c2cc3ccc(C(=O)Nc4cnn(Cc5ccc(N6CCC(N7CCN(Cc8cccc(NC9CCC(=O)NC9=O)c8)CC7)CC6)cc5)c4)nc3n21` (stereo partly drawn) [GT-07956, (9R)-N-(1-(4-(4-(4-(3-((2,6-dioxopiperidin-3-yl)amino)benzyl)piperazin-1-yl)piperidin-1-yl)benzyl)-1H-pyrazol-4-yl)-9-methyl-6-oxo-6,7,8,9-tetrahydropyrido[3',2':4,5]pyrrolo[1,2-a]pyrazine-2-carboxamide]: the “Degradation of substrate protein RSK1 (substrate protein remaining %)” value at RSK1 was “A (A is defined as 0% ≤ substrate protein remaining % ≤ 80%)”. Further, the “Degradation of substrate protein RSK2 (substrate protein remaining %)” value at RSK2 was “A (A is defined as 0% ≤ substrate protein remaining % ≤ 80%)”.

Turning to `C[C@@H]1CNC(=O)c2cc3ccc(C(=O)Nc4cnn(Cc5ccc(N6CCC(N7CCN(Cc8cc(N9CCC(=O)NC9=O)ncc8F)CC7)CC6)cc5)c4)nc3n21` [GT-07957, (R)-N-(1-(4-(4-(4-((2-(2,4-dioxotetrahydropyrimidin-1(2H)-yl)-5-fluoropyridin-4-yl)methyl)piperazin-1-yl)piperidin-1-yl)benzyl)-1H-pyrazol-4-yl)-9-methyl-6-oxo-6,7,8,9-tetrahydropyrido[3',2':4,5]pyrrolo[1,2-a]pyrazine-2-carboxamide], at RSK1, the “Degradation of substrate protein RSK1 (substrate protein remaining %)” value was “A (A is defined as 0% ≤ substrate protein remaining % ≤ 80%)”. Further, the “Degradation of substrate protein RSK2 (substrate protein remaining %)” value on RSK2 is on record as “A (A is defined as 0% ≤ substrate protein remaining % ≤ 80%)”.

As to `C[C@@H]1CNC(=O)c2cc3ccc(C(=O)Nc4cnn(Cc5ccc(N6CCC(N7CCN(Cc8ccnc(N9CCC(=O)NC9=O)c8)CC7)CC6)cc5)c4)nc3n21` [GT-07958, (R)-N-(1-(4-(4-(4-((2-(2,4-dioxotetrahydropyrimidin-1(2H)-yl)pyridin-4-yl)methyl)piperazin-1-yl)piperidin-1-yl)benzyl)-1H-pyrazol-4-yl)-9-methyl-6-oxo-6,7,8,9-tetrahydropyrido[3',2':4,5]pyrrolo[1,2-a]pyrazine-2-carboxamide], the “Degradation of substrate protein RSK1 (substrate protein remaining %)” value at RSK1 is “A (A is defined as 0% ≤ substrate protein remaining % ≤ 80%)”. Also, the “Degradation of substrate protein RSK2 (substrate protein remaining %)” value on RSK2 is recorded as “A (A is defined as 0% ≤ substrate protein remaining % ≤ 80%)”.

With `C[C@@H]1CNC(=O)c2cc3ccc(C(=O)Nc4cnn(Cc5ccc(N6CCC(N7CCN(Cc8cncc(N9CCC(=O)NC9=O)c8)CC7)CC6)cc5)c4)nc3n21` [GT-07959, (R)-N-(1-(4-(4-(4-((5-(2,4-dioxotetrahydropyrimidin-1(2H)-yl)pyridin-3-yl)methyl)piperazin-1-yl)piperidin-1-yl)benzyl)-1H-pyrazol-4-yl)-9-methyl-6-oxo-6,7,8,9-tetrahydropyrido[3',2':4,5]pyrrolo[1,2-a]pyrazine-2-carboxamide], the “Degradation of substrate protein RSK1 (substrate protein remaining %)” value on RSK1 is listed as “A (A is defined as 0% ≤ substrate protein remaining % ≤ 80%)”. In addition, on RSK2, the “Degradation of substrate protein RSK2 (substrate protein remaining %)” value is recorded as “A (A is defined as 0% ≤ substrate protein remaining % ≤ 80%)”.

As to `C[C@@H]1CNC(=O)c2cc3ccc(C(=O)Nc4cnn(Cc5ccc(N6CCC(N7CCN(Cc8cnc(N9CCC(=O)NC9=O)cn8)CC7)CC6)cc5)c4)nc3n21` [GT-07963, (R)-N-(1-(4-(4-(4-((5-(2,4-dioxotetrahydropyrimidin-1(2H)-yl)pyrazin-2-yl)methyl)piperazin-1-yl)piperidin-1-yl)benzyl)-1H-pyrazol-4-yl)-9-methyl-6-oxo-6,7,8,9-tetrahydropyrido[3',2':4,5]pyrrolo[1,2-a]pyrazine-2-carboxamide], the “Degradation of substrate protein RSK1 (substrate protein remaining %)” value on RSK1 is recorded as “A (A is defined as 0% ≤ substrate protein remaining % ≤ 80%)”. Also, the “Degradation of substrate protein RSK2 (substrate protein remaining %)” value on RSK2 is listed as “A (A is defined as 0% ≤ substrate protein remaining % ≤ 80%)”.

As usually defined, the inhibition is the percentage by which the read-out fell short of the control.

The record behind these values is patent EP4678638A1, “NEW E3 UBIQUITIN LIGASE LIGAND, PROTEIN DEGRADATION AGENT AND USE THEREOF” (priority 2023, dated 2024).
